Data reported in US20160095823A1, “METHODS OF USING PROPOFOL DERIVATIVES FOR ANALGESIA” (priority 2005, published 2016).
“And” between values parts separate entries of the source, which are not always exact repeats. Equal entries are not always repeated. Where two headings read alike, the source gives them in different places.

Assays:
[1] = target: T1, α1 homomeric glycine receptors (Rattus norvegicus, UniProt P07727); assay: Co-activation of the current response to 10 μM glycine, whole-cell patch clamp, transfected HEK 293 cells; type: cell-based; conditions: for nH (Hill coefficient), coactivating response, α1 homomer: co-applied with 10 μM glycine, Hill fit, ± s.d.
T1 construct: expressed in transfected cells; host or cells: HEK 293, transient electroporation, cDNA in pCIS2, GFP cDNA co-transfected as marker
T1 sequence (P07727 29-457): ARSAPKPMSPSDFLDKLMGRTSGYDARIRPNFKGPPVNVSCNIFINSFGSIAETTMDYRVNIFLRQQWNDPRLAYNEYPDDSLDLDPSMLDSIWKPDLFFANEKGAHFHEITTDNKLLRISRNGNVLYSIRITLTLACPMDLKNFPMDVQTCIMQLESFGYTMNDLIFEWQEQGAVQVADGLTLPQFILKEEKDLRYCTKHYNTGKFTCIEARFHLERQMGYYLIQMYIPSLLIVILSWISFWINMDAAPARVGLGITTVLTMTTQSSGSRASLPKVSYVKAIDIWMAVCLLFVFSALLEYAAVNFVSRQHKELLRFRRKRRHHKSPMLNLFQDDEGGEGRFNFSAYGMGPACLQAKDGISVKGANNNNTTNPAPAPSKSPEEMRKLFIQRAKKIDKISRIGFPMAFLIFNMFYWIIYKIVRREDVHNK
Experimental: (§1) Reduced sensitivity to 1000 μM picrotoxin in α1β heteromeric receptors was used as an assay of the efficacy of β subunit expression. Cells were cultured in Dulbecco's modified Eagle's medium (DMEM, Biochrom, Berlin, Germany), supplemented with 10% fetal calf serum (FCS, Biochrom, Berlin, Germany), 100 U ml^−1 penicillin and 100 μg ml^−1 streptomycin at 37° C. in a 5% CO2/air incubator. For transfection, cells were suspended in a buffer containing 50 mM K2HPO4 and 20 mM K-acetate, pH 7.35. […] To visualize transfected cells, they were co-transfected with cDNA of green fluorescent protein (GFP 10 μg ml^−1). For transfection, we used an electroporation device by EquiBio (Kent, UK). Transfected cells were replated on glass-coverslips and incubated 15-24 h before recording.
(§2) The phenol derivatives under investigation were prepared as 1 M stock solution in ethanol, light-protected and stored in glass vessels at −20° C. Concentrations were calculated from the amount injected into the glass vials. Drug-containing vials were vigorously vortexed for 60 min.
(§3) Patch electrodes contained [mM] KCl 140, MgCl2 2, EGTA 11, HEPES 10, glucose 10; the bath solution contained [mM] NaCl 162, KCl 5.3, NaHPO4 0.6, KH2PO4 0.22, HEPES 15, glucose 5.6.
(§4) Standard whole-cell experiments (Hamill et al., (1981) Pflügers Arch., 391, 85-100.) were performed at −30 mV membrane potential. A tight electrical seal of several GΩ formed between the cell membrane and a patch-clamp electrode allows inward currents due to agonist-induced channel activation to resolve in the pA range. Electrical resistance of the pipettes was around 5 MΩ, corresponding to a total access resistance in the whole-cell configuration of about 10 MΩ. An ultra-fast liquid filament switch technique (Franke et al., (1987) Neurosci. Lett., 77, 199-204) was used for the application of the agonist in pulses of 2 s duration. The agonist and/or the drug under investigation were applied to the cells via a smooth liquid filament achieved with a single outflow (glass tubing 0.15 mm inner diameter) connected to a piezo crystal. The cells were placed at the interface between this filament and the continuously flowing background solution. When a voltage pulse was applied to the piezo, the tube was moved up and down onto or away from the cell under investigation. […] The contents of these reservoirs were mixed at a junction immediately before entering the superfusion chamber.
(§5) A new cell was used for each drug and each protocol, at least three different experiments were performed for each setting. The amount of the diluent ethanol corresponding to the highest drug concentration used was 34 000 μM.
(§6) For data acquisition and further analysis the inventors used the Axopatch 200B amplifier in combination with pClamp6 software (Axon Instruments, Union City, Calif., USA). Currents were filtered at 2 kHz. Fitting procedures were performed using a non-linear least-squares Marquardt-Levenberg algorithm. Details are provided in the appropriate figure legends or in the results section.
(§7) Activated or co-activated currents were normalized to their own maximum response. […] In these cases, the maximum response was the response at the highest concentration of the test compound for which a reliable response could be recorded.
(§8) Only results obtained with α1β receptors were enrolled in the statistical tests. […] Statistical analysis was performed in order to reveal differences in the maximum effect on the one hand and in the concentrations required to achieve half-maximum effect (EC50) on the other between halogenated and non-halogenated analogues, between compounds with one vs. two methyl groups, or between compounds with ortho- or meso-position of the methyl groups with respect to the phenolic hydroxyl group, respectively. Curve fitting and parameter estimation of the Hill curves were performed using the program “PROC NLMIXED” of SAS Release 8.02.

[2] = target: T2, α1β heteromeric glycine receptors (Rattus norvegicus, UniProt P07727); assay: as above; type: cell-based; conditions: for nH (Hill coefficient), coactivating response, α1β heteromer: co-applied with 10 μM glycine, Hill fit, ± s.d.; for half-maximum concentration for glycine receptor co-activation, fold lower than for half-maximum blockade of sodium channels: selectivity versus reported sodium channel block
T2 construct: expressed in transfected cells; host or cells: HEK 293, transient electroporation, α:β cDNA 1:10, pCIS2 vector
T2 sequence (P20781 23-496 partner, one chain of several): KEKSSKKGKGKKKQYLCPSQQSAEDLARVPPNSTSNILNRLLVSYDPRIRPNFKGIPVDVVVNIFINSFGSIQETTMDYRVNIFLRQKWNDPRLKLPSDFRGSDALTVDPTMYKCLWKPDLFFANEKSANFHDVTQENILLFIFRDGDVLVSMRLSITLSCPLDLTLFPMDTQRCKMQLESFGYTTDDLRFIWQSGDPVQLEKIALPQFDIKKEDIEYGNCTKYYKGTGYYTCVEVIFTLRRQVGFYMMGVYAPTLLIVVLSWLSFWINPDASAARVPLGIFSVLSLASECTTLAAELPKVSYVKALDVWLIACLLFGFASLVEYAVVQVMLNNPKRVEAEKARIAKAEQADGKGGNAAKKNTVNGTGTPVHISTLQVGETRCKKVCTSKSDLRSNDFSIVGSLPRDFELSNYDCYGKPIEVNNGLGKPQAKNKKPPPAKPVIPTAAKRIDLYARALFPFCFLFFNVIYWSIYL
Experimental: as §1, §2, §3, §4, §5, §6, §7, §8

[3] = target: T1, α1 homomeric glycine receptors; assay: Direct activation of Cl- inward currents (agonist applied alone), whole-cell patch clamp, HEK 293; type: cell-based; conditions: for directly activated current as % of the maximum glycine (1000 μM) response: 3000 μM compound, without glycine, α1, n=3; for EC50: read-out: half-maximum concentration (EC50) for direct activation
Experimental: as §1, §4, §5, §6, §7

[4] = target: T2, α1β heteromeric glycine receptors; assay: as above; type: cell-based; conditions: for directly activated current as % of the maximum glycine (1000 μM) response: 3000 μM compound, without glycine, α1β, n=3; for EC50: read-out: half-maximum concentration (EC50) for direct activation
Experimental: as §1, §4, §5, §6, §7

[5] = system: voltage-operated sodium channels; conditions: cited from earlier work
glycine receptors = target: T3, glycine receptors (Rattus norvegicus, UniProt P07727); assay: Inhibitory effects (open channel block) on co-application with saturating 1000 μM glycine; type: cell-based; conditions: co-applied with 1000 μM glycine, 3 experiments
T3 construct: expressed in transfected cells; host or cells: HEK 293
T3 sequence (P07727 29-457): T1 sequence (P07727 29-457)
Experimental: as §4
A new cell was used for each drug and each protocol, at least three different experiments were performed for each setting. […]

[6] = target: T4, α-subunits of glycine receptors from the rat coexpressed with human β subunits (Rattus norvegicus, UniProt P07727); assay: Example 2: co-activation of the current response to 10 μM glycine, whole-cell mode, HEK293 cells; type: cell-based; conditions: for EC50 values in the presence of glycine (co-activation): Example 2; for concentrations at which the co-activating effect is overridden by inhibitory effects: co-applied with 10 μM glycine; for enhancement of glycine receptor function / EC50 for co-activation, fold lower concentrations than propofol: glycine receptors heterologously expressed in HEK293 cells
T4 construct: expressed in transfected cells; host or cells: HEK293
T4 sequence (P48167 23-497 partner, one chain of several): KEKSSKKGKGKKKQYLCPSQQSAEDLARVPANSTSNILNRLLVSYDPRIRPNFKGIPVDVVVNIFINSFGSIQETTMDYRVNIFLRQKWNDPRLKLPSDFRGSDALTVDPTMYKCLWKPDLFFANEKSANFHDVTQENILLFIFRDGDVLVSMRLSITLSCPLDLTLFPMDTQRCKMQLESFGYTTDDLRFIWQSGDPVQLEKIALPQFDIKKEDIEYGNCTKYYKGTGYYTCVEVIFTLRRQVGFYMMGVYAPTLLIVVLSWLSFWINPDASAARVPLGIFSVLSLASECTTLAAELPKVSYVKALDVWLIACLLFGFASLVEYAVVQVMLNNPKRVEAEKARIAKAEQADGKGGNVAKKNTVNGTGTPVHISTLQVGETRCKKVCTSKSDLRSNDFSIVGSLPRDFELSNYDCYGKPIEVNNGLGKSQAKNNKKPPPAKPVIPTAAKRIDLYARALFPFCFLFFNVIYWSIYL
Experimental: (§9) Small cells were studied in the whole-cell mode using an ultra-fast application device.
The results presented in FIG. 10 were corroborated by repeating the tests carried out to provide the data shown in FIG. 10 to provide the data shown in FIG. 11. […] Note from FIGS. 10 and 11 that the co-activating effect is observed in the concentration range between […]. The co-activating effect is overridden by inhibitory effects at higher concentrations (≧1000 μM). […] Small cells were studied in the whole-cell mode using an ultra-fast application device.

[7] = target: T4, α-subunits of glycine receptors from the rat coexpressed with human β subunits; assay: Example 2: direct activation in the absence of glycine, whole-cell mode, HEK293 cells; type: cell-based; conditions: for EC50 values in the absence of the natural transmitter glycine: Example 2; for direct activating effect, fold higher concentrations than the co-activating effect: absence of glycine versus 10 μM glycine
Description: as §9
The solid line is a Hill fit to the data with the indicated parameters. Note that the direct activating effect is observed at 1000-fold higher concentrations than the co-activating effect.

[8] = target: T1, α1 homomeric glycine receptors; assay: Picrotoxin block of the 1000 μM glycine current (check of β subunit expression); type: cell-based; conditions: picrotoxin 1000 μM co-applied with 1000 μM glycine
Experimental: as §1
(§10) A total of 94 cells were included in the study.

α1β glycine receptors = target: T5, α1β glycine receptors (Rattus norvegicus, UniProt P07727); assay: as above; type: cell-based; conditions: picrotoxin 1000 μM co-applied with 1000 μM glycine
T5 construct: expressed in transfected cells; host or cells: HEK 293, transient electroporation, α:β cDNA 1:10, pCIS2 vector
T5 sequence (P20781 23-496 partner, one chain of several): as the sequence (P20781 23-496 partner, one chain of several) above
Experimental: as §1, §10

[9] = read-out: EC50 (μM), normalised coactivating response, α1 homomer
[10] = read-out: EC50 (μM), normalised coactivating response, α1β heteromer

In the case of `Cc1ccccc1O` [2 methylphenol], the EC50 [1] is reported as 70 ± 29 µM, the “nH (Hill coefficient), coactivating response, α1 homomer” value (shortened to “nH (Hill coefficient) … α1 homomer”) [1] is reported as 0.7 ± 0.1 and the EC50 [2] is reported as 448 ± 89 µM. The “nH (Hill coefficient), coactivating response, α1β heteromer” value (shortened to “nH (Hill coefficient) … α1β heteromer”) [2] was 1.2 ± 0.2.

For `Cc1cccc(C)c1O` [2,6 dimethylphenol], the “nH (Hill coefficient) … α1 homomer” value [1] was 1.5 ± 0.4, the EC50 [1, 9] was 226 ± 104 µM and the “nH (Hill coefficient) … α1β heteromer” value [2] was 1.2 ± 0.1. For the same molecule, the EC50 [2, 10] was 370 µM and 373 µM, the “directly activated current as % of the maximum glycine (1000 μM) response” value (from here on “directly activated current as %”) [3] was 32±6% and the EC50 [3] was 1410 ± 101 µM. For the same molecule, the “directly activated current as %” value [4] was 33±10%, the EC50 [4] was 1550 ± 164 µM and the IC50 ([5]; membrane potential close to the physiological resting potential, read-out: half-maximum blockade of voltage-operated neuronal sodium channels) was 187 µM.

For `Cc1cc(O)ccc1Cl` [3 methyl-4-chlorophenol], the EC50 [1] was 8 ± 5 µM, the “nH (Hill coefficient) … α1 homomer” value [1] was 1.1 ± 0.4 and the EC50 [2] was 4 µM. The “nH (Hill coefficient) … α1β heteromer” value [2] was 1.2 ± 0.3, the “half-maximum concentration for glycine receptor co-activation, fold lower than for half-maximum blockade of sodium channels” value [2] was roughly 100 fold and the “concentration producing a reduction in peak current amplitude with response rebound” value (glycine receptors) was greater than 600 µM. The IC50 ([5]; resting state, read-out: half-maximum block of sodium channels) was 400 µM.

In the case of `Cc1cccc(O)c1` [3 methylphenol], the “nH (Hill coefficient) … α1 homomer” value [1] is reported as 0.9 ± 0.3, the EC50 [1, 9] is reported as 59 ± 19 µM and the “nH (Hill coefficient) … α1β heteromer” value [2] is reported as 1.0 ± 0.1. For the same molecule, the EC50 [2, 10] was 222 ± 45 µM.

For `Cc1cc(O)cc(C)c1Cl` [3,5 dimethyl-4-chlorophenol], the “nH (Hill coefficient) … α1 homomer” value [1] was 1.4 ± 2.9, the EC50 [1, 9] was 13 ± 4 µM and the “nH (Hill coefficient) … α1β heteromer” value [2] was 1.3 ± 0.1. For the same molecule, the EC50 [2, 10] was 11 ± 2 µM, the “half-maximum concentration for glycine receptor co-activation, fold lower than for half-maximum blockade of sodium channels” value [2] was “about 10 fold” and the “concentration producing a reduction in peak current amplitude with response rebound” value (glycine receptors) was greater than 300 µM.

In the case of `Cc1cc(C)cc(O)c1` [3,5 dimethylphenol], the “nH (Hill coefficient) … α1 homomer” value [1] is reported as 1.7 ± 0.9, the EC50 [1, 9] is reported as 254 ± 139 µM and the “nH (Hill coefficient) … α1β heteromer” value [2] is reported as 1.3 ± 0.2. For the same molecule, the EC50 [2, 10] was 308 ± 46 µM, the “directly activated current as %” value [3] was 30±12% and the EC50 [3] was 1470 ± 208 µM. For the same molecule, the “directly activated current as %” value [4] was 38±5% and the EC50 [4] was 1470 ± 83 µM.

With `CC(C)c1cc(Br)cc(C(C)C)c1O` [4-bromopropofol, 4-bromo-2,6 di-isopropylphenol] the “EC50 values in the presence of glycine (co-activation)” value [6] was “single-digit nanomolar range”, the “concentrations at which the co-activating effect is overridden by inhibitory effects” value [6] was greater than 1000 µM and the “enhancement of glycine receptor function / EC50 for co-activation, fold lower concentrations than propofol” value [6] was 1000 fold. For the same molecule, the “EC50 values in the absence of the natural transmitter glycine” value [7] was “single-digit micromolar range” and the “direct activating effect, fold higher concentrations than the co-activating effect” value [7] was 1000 fold.

With `CC(C)c1cc(I)cc(C(C)C)c1O` [4-iodopropofol, 4-iodo-2,6 di-isopropylphenol] the “EC50 values in the presence of glycine (co-activation)” value [6] was “single-digit nanomolar range”, the “concentrations at which the co-activating effect is overridden by inhibitory effects” value [6] was greater than 1000 µM and the “enhancement of glycine receptor function / EC50 for co-activation, fold lower concentrations than propofol” value [6] was 1000 fold. The “EC50 values in the absence of the natural transmitter glycine” value [7] was “single-digit micromolar range” and the “direct activating effect, fold higher concentrations than the co-activating effect” value [7] was 1000 fold.

For `NCC(=O)O` [glycine], the “current response evoked by 10 μM glycine, % of the response to 1000 μM glycine” value ([3]; α1 receptors, n=24) was 46±5% and the “current response evoked by 10 μM glycine, % of the response to 1000 μM glycine” value ([4]; α1β receptors, n=34) was 21±7%.

For picrotoxin, the “block of receptors by picrotoxin” value [8] was 55±0.05% and the “block of receptors by picrotoxin” value (α1β glycine receptors) was 19±0.05%.
